The values below come from patent US11279687B2, “Compounds and compositions for the inhibition of NAMPT” (Valo Health, Inc., priority 2010, dated 2022).

Molecules are shown by their SMILES. Where two headings read alike, the source gives them in different places.

The target of one experiment is NAMPT (Homo sapiens (Human), UniProt P43490). The experiment is described as follows: NAMPT biochemical inhibition assay (NMN quantified by mass spectrometry). As to conditions: NAMPT biochemical inhibition; read-out: Biochem IC50.
The next experiment deals with A2780 cells. In words: In-vitro cell proliferation assay (SRB), A2780 cells.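 Further: viable cell number read as SRB absorbance, background from media-only wells subtracted, IC50 interpolated from percent inhibition at two bracketing compound concentrations.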 The experiment is classed as cell-based. As to conditions: A2780 cells, 72 hours, SRB, read-out: A2780 IC50.

Sequence of NAMPT (P43490 whole entry): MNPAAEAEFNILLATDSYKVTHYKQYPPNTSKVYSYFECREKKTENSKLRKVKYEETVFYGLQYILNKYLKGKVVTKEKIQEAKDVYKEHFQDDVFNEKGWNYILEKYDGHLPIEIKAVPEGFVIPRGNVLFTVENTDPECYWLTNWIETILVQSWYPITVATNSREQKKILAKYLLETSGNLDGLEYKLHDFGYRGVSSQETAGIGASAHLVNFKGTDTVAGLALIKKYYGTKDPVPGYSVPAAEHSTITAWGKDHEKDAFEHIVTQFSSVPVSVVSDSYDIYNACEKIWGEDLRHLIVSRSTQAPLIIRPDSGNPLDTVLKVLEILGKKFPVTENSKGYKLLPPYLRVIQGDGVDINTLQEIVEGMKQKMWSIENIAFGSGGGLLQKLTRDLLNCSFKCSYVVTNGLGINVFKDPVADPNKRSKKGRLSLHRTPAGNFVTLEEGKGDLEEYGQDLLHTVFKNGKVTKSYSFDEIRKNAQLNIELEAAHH

On to `COc1ccc(F)cc1NS(=O)(=O)c1ccc(NC(=O)NCc2cccnc2)cc1` [3-{4-[(5-fluoro-2-methoxyphenyl)sulfamoyl]phenyl]-1-(pyridin-3-ylmethyl)urea], for which the IC50 – broadly, the concentration needed to halve the response being measured – at NAMPT was found to be 1 nM; in the experiment on A2780 cells (Homo sapiens, A2780, 72 h), 33 nM.

For `CC(C)Oc1cccc(S(=O)(=O)c2ccc(NC(=O)NCc3cccnc3)cc2)c1` [3-(4-{[3-(propan-2-yloxy)benzene]sulfonyl}phenyl)-1-(pyridin-3-ylmethyl)urea], the IC50 at NAMPT amounted to 4 nM; in the experiment on A2780 cells (Homo sapiens, A2780, 72 h), 79 nM.

Turning to `O=C(NCc1cccnc1)Nc1ccc(S(=O)(=O)c2cccc(C(=O)NC3CCCC3)c2)cc1` [N-cyclopentyl-3-[(4-{[(pyridin-3-ylmethyl)carbamoyl]amino[benzene)sulfonyl]benzamide], the half-inhibitory concentration (IC50) on NAMPT was 9.6 nM; in the experiment with A2780 cells, 100 to 1000 nM.

With `O=C(NCc1cccnc1)Nc1ccc(S(=O)(=O)Nc2ccccc2-n2cccc2)cc1` [3-(pyridin-3-ylmethyl)-1-(4-{[2-(1H-pyrrol-1-yl)phenyl]sulfamoyl}phenyl)urea], the 50% inhibitory concentration (IC50) stood at 3 nM at NAMPT and 76 nM with A2780 cells (Homo sapiens, A2780, 72 h).

Turning to `COc1ccc(S(=O)(=O)c2ccc(NC(=O)NCc3cccnc3)cc2)cc1Cl` [3-{4-[(3-chloro-4-methoxybenzene)sulfonyl]phenyl}-1-(pyridin-3-ylmethyl)urea], the 50% inhibitory concentration (IC50) at NAMPT came to 1.3 nM; in the experiment on A2780 cells (Homo sapiens, A2780, 72 h), 92.9 nM.

Regarding `O=C(NCc1cccnc1)Nc1ccc(S(=O)(=O)C2CCCC2)cc1` [1-[4-(cyclopentanesulfonyl)phenyl]-3-(pyridin-3-ylmethyl)urea], the IC50 was found to be 43 nM on NAMPT and 1860 nM in the experiment on A2780 cells (Homo sapiens, A2780, 72 h).

For the compound `Cc1ncccc1S(=O)(=O)c1ccc(NC(=O)NCc2cccnc2)cc1` [3-[4-(2-methylpyridine-3-sulfonyl)phenyl]-1-(pyridin-3-ylmethyl)urea], the IC50 at NAMPT was 7.2 nM; in the experiment on A2780 cells (Homo sapiens, A2780, 72 h) it was 100 to 1000 nM.

For `CN(C)C(=O)C1CCN(S(=O)(=O)c2ccc(NC(=O)NCc3cccnc3)cc2)CC1` [N,N-dimethyl-1-[(4-{[(pyridin-3-ylmethyl)carbamoyl]amino}benzene)sulfonyl]piperidine-4-carboxamide], the IC50 at NAMPT was found to be 9 nM; in the experiment on A2780 cells (Homo sapiens, A2780, 72 h), 164 nM.

Regarding `O=C(NCc1cccnc1)Nc1ccc(S(=O)(=O)c2cccc3cccnc23)cc1` [3-(pyridin-3-ylmethyl)-1-[4-(quinoline-8-sulfonyl)phenyl]urea], the half-maximal inhibitory concentration (IC50) was 1.4 nM at NAMPT and 2.2 nM in the experiment on A2780 cells (Homo sapiens, A2780, 72 h).

On to `CC(C)COc1cccc(S(=O)(=O)c2ccc(NC(=O)NCc3cccnc3)cc2)c1` [3-(4-{[3-(2-methylpropoxy)benzene]sulfonyl]phenyl)-1-(pyridin-3-ylmethyl)urea], for which the IC50 is 3.3 nM on NAMPT and 100 to 1000 nM in the experiment with A2780 cells (Homo sapiens, A2780, 72 h).

Consider `CCS(=O)(=O)Nc1cccc(S(=O)(=O)c2ccc(NC(=O)NCc3cccnc3)cc2)c1` [3-{4-[(3-ethanesulfonamidobenzene)sulfonyl]phenyl}-1-(pyridin-3-ylmethyl)urea], for which the half-inhibitory concentration (IC50) at NAMPT came out at 1.1 nM; with A2780 cells (Homo sapiens, A2780, 72 h) it was 69.5 nM.

In the case of `O=C(NCc1cccnc1)Nc1ccc(S(=O)(=O)Nc2ccc(Cl)cc2Cl)cc1` [3-{4-[(2,4-dichlorophenyl)sulfamoyl]phenyl]-1-(pyridin-3-ylmethyl)urea], the IC50 on NAMPT worked out at 3 nM; with A2780 cells (Homo sapiens, A2780, 72 h), 189 nM.

`CCOCc1ccc(S(=O)(=O)c2ccc(NC(=O)NCc3cccnc3)cc2)cc1` [3-(4-{[4-(ethoxymethyl)benzene]sulfonyl[phenyl)-1-(pyridin-3-ylmethyl)urea]: the IC50 at NAMPT is 1 nM; in the experiment with A2780 cells (Homo sapiens, A2780, 72 h), 100 to 1000 nM.

With `COC[C@@H]1CCCN1S(=O)(=O)c1ccc(NC(=O)NCc2cccnc2)cc1` [3-{4-[(2S)-2-(methoxymethyl)pyrrolidine-1-sulfonyl]phenyl}-1-(pyridin-3-ylmethyl)urea], the IC50 on NAMPT came out at 2 nM; with A2780 cells (Homo sapiens, A2780, 72 h), 60 nM.

On to `N#Cc1cccc(S(=O)(=O)c2ccc(NC(=O)NCc3cccnc3)cc2)c1` [1-{4-[(3-cyanobenzene)sulfonyl]phenyl}-3-(pyridin-3-ylmethyl)urea], for which the IC50 on NAMPT is 8 nM; in the experiment with A2780 cells (Homo sapiens, A2780, 72 h), 100 to 1000 nM.

As for `O=C(NCc1cccnc1)Nc1ccc(S(=O)(=O)c2ccc(C(F)(F)F)c(F)c2)cc1` [3-(4-{[3-fluoro-4-(trifluoromethyl)benzene]sulfonyl}phenyl)-1-(pyridin-3-ylmethyl)urea], the IC50 on NAMPT is 4.1 nM; in the experiment with A2780 cells (Homo sapiens, A2780, 72 h), 100 to 1000 nM.

Turning to `O=C(NCc1ccc2nccn2c1)c1ccc(S(=O)(=O)c2cccc(Cl)c2)cc1` [4-[(3-chlorobenzene)sulfonyl]-N-{imidazo[1,2-a]pyridin-6-ylmethyl}benzamide], the half-maximal inhibitory concentration (IC50) on NAMPT worked out at 12.1 nM; in the experiment with A2780 cells (Homo sapiens, A2780, 72 h) it was 6.39 nM.

Take `COc1ccc(C(F)(F)F)cc1S(=O)(=O)c1ccc(NC(=O)NCc2cccnc2)cc1` [3-(4-{[2-methoxy-5-(trifluoromethyl)benzene]sulfonyl}phenyl)-1-(pyridin-3-ylmethyl)urea]: the IC50 at NAMPT worked out at 1.4 nM; in the experiment with A2780 cells (Homo sapiens, A2780, 72 h), 3.3 nM.

Turning to `O=C(NCc1cccnc1)Nc1ccc(S(=O)(=O)c2cccc(OCC3CC3)c2)cc1` [1-(4-{[3-(cyclopropylmethoxy)benzene]sulfonyl}phenyl)-3-(pyridin-3-ylmethyl)urea], the IC50 was 8.6 nM at NAMPT and 100 to 1000 nM in the experiment on A2780 cells (Homo sapiens, A2780, 72 h).

Take `O=C(NCc1cccnc1)Nc1ccc(S(=O)(=O)c2ccc(C(=O)N3CCCC3)cc2)cc1` [3-(pyridin-3-ylmethyl)-1-[4-({4-[(pyrrolidin-1-yl)carbonyl]benzene}sulfonyl)phenyl]urea]: the IC50 at NAMPT stood at 1.3 nM; in the experiment on A2780 cells (Homo sapiens, A2780, 72 h), 7.6 nM.

Turning to `COc1ccc(Cl)cc1NS(=O)(=O)c1ccc(C(=O)NCCc2cccnc2)cc1` [4-[(5-chloro-2-methoxyphenyl)sulfamoyl]-N-[2-(pyridin-3-yl)ethyl]benzamide], the 50% inhibitory concentration (IC50) was determined as 4720 nM on NAMPT and 31.2 nM with A2780 cells (Homo sapiens, A2780, 72 h).

On to `O=C(NCc1cccnc1)Nc1ccc(S(=O)(=O)c2ccc(OC(F)(F)F)c(F)c2)cc1` [3-(4-{[3-fluoro-4-(trifluoromethoxy)benzene]sulfonyl}phenyl)-1-(pyridin-3-ylmethyl)urea], for which the IC50 on NAMPT is 5.5 nM; in the experiment with A2780 cells (Homo sapiens, A2780, 72 h) it was 100 to 1000 nM.

Take `O=C(NCc1cccnc1)Nc1ccc(S(=O)(=O)N2CCC3(CCCC3)CC2)cc1` [1-(4-{8-azaspiro[4.5]decane-8-sulfonyl}phenyl)-3-(pyridin-3-ylmethyl)urea]: the IC50 at NAMPT turned out to be 4 nM; in the experiment on A2780 cells (Homo sapiens, A2780, 72 h), 343 nM.

Turning to `O=C(NCc1cccnc1)Nc1ccc(S(=O)(=O)NC2(c3ccccc3)CCCC2)cc1` [1-{4-[(1-phenylcyclopentyl)sulfamoyl]phenyl}-3-(pyridin-3-ylmethyl)urea], the half-maximal inhibitory concentration (IC50) on NAMPT stood at 29 nM; with A2780 cells (Homo sapiens, A2780, 72 h), 180 nM.

Regarding `O=C(NCc1cccnc1)Nc1ccc(S(=O)(=O)c2cc(F)ccc2F)cc1` [3-{4-[(2,5-difluorobenzene)sulfonyl]phenyl}-1-(pyridin-3-ylmethyl)urea], the half-inhibitory concentration (IC50) on NAMPT is 4 nM; in the experiment on A2780 cells (Homo sapiens, A2780, 72 h), 403 nM.

With `CCc1ccc(CN(C)S(=O)(=O)c2ccc(NC(=O)NCc3cccnc3)cc2)nc1` [3-(4-{[(5-ethylpyridin-2-yl)methyl](methyl)sulfamoyl}phenyl)-1-(pyridin-3-ylmethyl)urea], the IC50 worked out at 5 nM on NAMPT and 134 nM in the experiment with A2780 cells (Homo sapiens, A2780, 72 h).

Consider `O=C(NCc1cccnc1)Nc1ccc(S(=O)(=O)N2CCc3ncccc3C2)cc1` [3-(pyridin-3-ylmethyl)-1-[4-(5,6,7,8-tetrahydro-1,6-naphthyridine-6-sulfonyl)phenyl]urea], for which the IC50 at NAMPT came to 16 nM; in the experiment with A2780 cells (Homo sapiens, A2780, 72 h), 111 nM.
